Source: patent US12415785B2, “Compound modulators of sting” (CTXT PTY LTD, priority 2019, dated 2025)

How the values were obtained:
Type in all cases: binding
[1] = tested on: human STING (HAQ); assay: Differential scanning fluorimetry (DSF), huSTING (HAQ); conditions: 2 μM protein, compound 100 μM; Tm with ligand minus Tm of protein alone (1% DMSO)
How it was run: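 Recombinant His-TEV-tagged human STING allelic variants expressed in E. coli and purified by IMAC. Thermal unfolding followed by dye fluorescence (excitation 490 nm, emission 570 nm) from 20° C. to 100° C. in 0.5° C. steps, in triplicate, with and without ligand; Tm taken from the transition inflection point.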

[2] = target: human STING (WT) (Homo sapiens (Human), UniProt Q86WV6, H232R); assay: Surface plasmon resonance (SPR), STING (WT); conditions: biotinylated STING on streptavidin chip, 8° C.
Sequence of human STING (WT) (Q86WV6 other isoform, or with tags, fused parts or gaps, stated change not applied): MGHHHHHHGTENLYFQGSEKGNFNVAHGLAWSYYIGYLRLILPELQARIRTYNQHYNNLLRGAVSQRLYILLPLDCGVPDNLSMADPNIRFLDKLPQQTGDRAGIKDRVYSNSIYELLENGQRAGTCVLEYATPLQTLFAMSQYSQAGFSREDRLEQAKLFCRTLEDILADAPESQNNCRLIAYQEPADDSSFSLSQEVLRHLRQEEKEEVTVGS
Method: (§1) Biophysical experiments were performed with three different recombinant human STING protein variants designated according to allelic nomenclature of Yi et al., (2013). Codon optimized DNA sequences (for expression in Escherichia coli) encoding amino acid residues 149 to 345 (Swiss Prot Q86WV6) of human STING (WT), human STING (HAQ) and human STING (R232H) were synthesised by GenScript USA Inc (Piscataway, New Jersey, USA). These were ligated into a modified pET43a E. coli expression vector designed to encode N-terminal His tag followed by tobacco etch virus protease (TEV) cleavage site and a STING gene sequence. The resulting protein sequences for the three allelic variants are listed below:
(§2) Binding interactions of ligands with STING proteins were quantified using Surface Plasmon Resonance (SPR) with a minimally biotinylated STING protein immobilized on a streptavidin chip surface. […] Minimal biotinylation of purified huSTING proteins was performed using a previously described methodology (Chhabra 2012). Briefly, approximately 20 nmol of recombinant STING protein in 1×TBS buffer (25 mM Tris-HCl, pH 7.5, 150 mM NaCl, 5 mM DTT) was mixed with of EZ-Link™ Sulfo-NHS-LC-LC-Biotin (Thermofisher Scientific, cat #21338) at a molar ratio of 1 to 0.6 and incubated on ice for 2 hours. To remove any unreacted biotin reagent, protein/biotin mixture was passed through a Superdex 75 (10/300 GL) column equilibrated with 10 mM HEPES, pH7.4, 150 mM NaCl, 5 mM DTT, 5%[v/v] glycerol. A protein peak containing biotinylated huSTING protein was collected and stored in aliquots at −80° C.
Streptavidin was simultaneously immobilized in all four channels of a CM5 sensor chip docked in a Biacore instrument (either Biacore S200 or Biacore T200, GE Healthcare) as described previously (Zender 2013). Minimally biotinylated STING protein was captured onto a streptavidin coated chip surface at 8° C. in SPR binding buffer (50 mM HEPES, pH 7.4, 150 mM NaCl, 2%[v/v] DMSO) by gradually injecting in a single channel at a constant flow-rate of 2 μL/min until desired capture level was achieved, typically 3000 to 7000 RU (1 RU=1 pg/mm^2).
All binding experiments were performed at 8° C. in SPR binding buffer. To determine binding affinity, compound interaction with immobilized STING protein was analysed using dose-response experiments. Fresh 10 mM DMSO solutions of compound were diluted directly into SPR binding buffer typically to a concentration of 50 μM and then further diluted 2-fold or 3-fold aiming for either a 5- or 7-point concentration series range. Each ligand concentration series was injected at a constant flow rate of 60 μL/min with a 90 second association and a 180 second dissociation time. These were modified for compounds with longer residence times, so that curves could reach steady-state, or so that compound would be fully dissociated before the subsequent injection.
Scrubber 2 (www.biologic.com.au) was utilized for data processing, where signals were referenced against the blank surface (streptavidin+D-biotin) and further corrected for DMSO refractive index change and then “double-referenced” using a buffer-blank injection (Papalia 2006). Responses were fitted to either a 1:1 steady-state affinity model or a 1:1 kinetic model (that included a mass-transport component), available within Scrubber.

[3] = target: human STING (HAQ) (Homo sapiens, UniProt Q86WV6, G230A/H232R/R293Q); assay: Surface plasmon resonance (SPR), STING (HAQ); conditions: biotinylated STING on streptavidin chip, 8° C.
Sequence of human STING (HAQ) (Homo sapiens, UniProt Q86WV6, G230A/H232R/R293Q) (Q86WV6 whole entry G230A/H232R/R293Q, looked up): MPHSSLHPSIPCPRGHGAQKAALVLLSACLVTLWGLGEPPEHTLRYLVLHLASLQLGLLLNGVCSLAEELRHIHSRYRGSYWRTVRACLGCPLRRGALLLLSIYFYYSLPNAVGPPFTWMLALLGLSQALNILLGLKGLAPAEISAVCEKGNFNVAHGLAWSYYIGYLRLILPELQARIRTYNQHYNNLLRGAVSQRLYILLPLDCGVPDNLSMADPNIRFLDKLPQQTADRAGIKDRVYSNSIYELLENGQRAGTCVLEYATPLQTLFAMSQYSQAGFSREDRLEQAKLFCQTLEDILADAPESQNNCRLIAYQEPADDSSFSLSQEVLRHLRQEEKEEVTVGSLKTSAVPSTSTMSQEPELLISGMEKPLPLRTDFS
Method: as §1, §2
Streptavidin was simultaneously immobilized in all four channels of a CM5 sensor chip docked in a Biacore instrument (either Biacore S200 or Biacore T200, GE Healthcare) as described previously (Zender 2013). […]
All binding experiments were performed at 8° C. in SPR binding buffer. To determine binding affinity, compound interaction with immobilized STING protein was analysed using dose-response experiments. […]

| Structure (SMILES) | DSF huSTING (HAQ) ΔTm (° C.) [1] [°C] | Kd [2] [µM] | Kd [3] [µM] |
| --- | --- | --- | --- |
| NC(=O)c1ccc2c(c1)nc(-c1cc(Br)ccc1C(=O)O)n2CCn1c(-c2cc(Br)ccc2C(=O)O)nc2cc(C(N)=O)ccc21 [Example 3, 2,2′-(Ethane-1,2-diylbis(5-carbamoyl-1H-benzo[d]imidazole-1,2-diyl))bis(4-bromobenzoic acid)] | – | 700 | > 10 |
| CCc1ccc(-c2nc3c(OC)c(C(N)=O)ccc3n2CCn2c(-c3ccc(CC)cc3C(=O)O)nc3c(OC)c(C(N)=O)ccc32)c(C(=O)O)c1 [Example 33, 6,6′-(Ethane-1,2-diylbis(5-carbamoyl-4-methoxy-1H-benzo[d]imidazole-1,2-diyl))bis(3-ethylbenzoic acid)] | – | 107 | – |
| COc1c(C(N)=O)ccc2c1nc(-c1cccc(Br)c1C(=O)O)n2CCn1c(-c2cccc(Br)c2C(=O)O)nc2c(OC)c(C(N)=O)ccc21 [Example 36, 6,6′-(Ethane-1,2-diylbis(5-carbamoyl-4-methoxy-1H-benzo[d]imidazole-1,2-diyl))bis(2-bromobenzoic acid)] | – | 58 | – |
| COc1c(C(N)=O)ccc2c1nc(-c1cccc(Cl)c1-c1nn[nH]n1)n2CCn1c(-c2cccc(Cl)c2-c2nn[nH]n2)nc2c(OC)c(C(N)=O)ccc21 [Example 40, 1,1′-(Ethane-1,2-diyl)bis(2-(3-chloro-2-(2H-tetrazol-5-yl)phenyl)-4-methoxy-1H-benzo[d]imidazole-5-carboxamide)] | – | 180 | – |
| COc1c(C(N)=O)ccc2c1nc(-c1c(F)cc(Cl)cc1Br)n2CCn1c(-c2c(F)cc(Cl)cc2Br)nc2c(OC)c(C(N)=O)ccc21 [Example 45, 1,1′-(Ethane-1,2-diyl)bis(2-(2-bromo-4-chloro-6-fluorophenyl)-4-methoxy-1H-benzo[d]imidazole-5-carboxamide)] | – | 29.6 | – |
| COc1c(C(N)=O)ccc2c1nc(-c1c(F)cc(Cl)cc1-c1nn[nH]n1)n2CCn1c(-c2c(F)cc(Cl)cc2-c2nn[nH]n2)nc2c(OC)c(C(N)=O)ccc21 [Example 46, 1,1′-(Ethane-1,2-diyl)bis(2-(4-chloro-2-fluoro-6-(2H-tetrazol-5-yl)phenyl)-4-methoxy-1H-benzo[d]imidazole-5-carboxamide)] | – | 0.413 | – |
| COc1c(C(N)=O)ccc2c1nc(-c1c(F)cccc1-c1nn[nH]n1)n2CCn1c(-c2c(F)cccc2-c2nn[nH]n2)nc2c(OC)c(C(N)=O)ccc21 [Example 48, 1,1′-(Ethane-1,2-diyl)bis(2-(2-fluoro-6-(2H-tetrazol-5-yl)phenyl)-4-methoxy-1H-benzo[d]imidazole-5-carboxamide)] | – | 0.512 | – |
| COc1c(C(N)=O)ccc2c1nc(-c1c(F)cccc1-c1n[nH]c(=O)o1)n2CCn1c(-c2c(F)cccc2-c2n[nH]c(=O)o2)nc2c(OC)c(C(N)=O)ccc21 [Example 49, 1,1′-(Ethane-1,2-diyl)bis(2-(2-fluoro-6-(5-oxo-4,5-dihydro-1,3,4-oxadiazol-2-yl)phenyl)-4-methoxy-1H-benzo[d]imidazole-5-carboxamide)] | – | 0.755 | – |

Other lines, results leading:

| DSF huSTING (HAQ) ΔTm (° C.) [1] [°C] | Kd [2] [µM] | Kd [3] [µM] | Structure (SMILES) |
| --- | --- | --- | --- |
| 7.46 | 33 | – | NC(=O)c1ccc2c(c1)nc(-c1c(Br)cccc1C(=O)O)n2CCn1c(-c2c(Br)cccc2C(=O)O)nc2cc(C(N)=O)ccc21 (single isomer, unassigned) [Example 29.1, 2,2′-(Ethane-1,2-diylbis(5-carbamoyl-1H-benzo[d]imidazole-1,2-diyl))bis(3-bromobenzoic acid)] |
| – | > 80 | – | COc1c(C(N)=O)ccc2c1nc(-c1ccc(Cl)cc1-c1noc(=O)[nH]1)n2CCn1c(-c2ccc(Cl)cc2-c2noc(=O)[nH]2)nc2c(OC)c(C(N)=O)ccc21 [Example 32, 1,1′-(Ethane-1,2-diyl)bis(2-(4-chloro-2-(5-oxo-4,5-dihydro-1,2,4-oxadiazol-3-yl)phenyl)-4-methoxy-1H-benzo[d]imidazole-5-carboxamide)] |
| – | 74 | – | COc1c(C(N)=O)ccc2c1nc(-c1ccc(Cl)cc1C(=O)O)n2C/C=C/Cn1c(-c2ccc(Cl)cc2C(=O)O)nc2c(OC)c(C(N)=O)ccc21 [Example 34, (E)-6,6′-(But-2-ene-1,4-diylbis(5-carbamoyl-4-methoxy-1H-benzo[d]imidazole-1,2-diyl))bis(3-chlorobenzoic acid)] |
| – | > 100 | – | COc1c(C(N)=O)ccc2c1nc(-c1ccc(Cl)cc1C(=O)O)n2CCCn1c(-c2ccc(Cl)cc2C(=O)O)nc2c(OC)c(C(N)=O)ccc21 [Example 35, 6,6′-(Propane-1,3-diylbis(5-carbamoyl-4-methoxy-1H-benzo[d]imidazole-1,2-diyl))bis(3-chlorobenzoic acid)] |
| – | – | 0.2 | COc1c(C(N)=O)ccc2c1nc(-c1ccc(Cl)c(Cl)c1-c1nn[nH]n1)n2CCn1c(-c2ccc(Cl)c(Cl)c2-c2nn[nH]n2)nc2c(OC)c(C(N)=O)ccc21 [Example 37, 1,1′-(Ethane-1,2-diyl)bis(2-(3,4-dichloro-2-(2H-tetrazol-5-yl)phenyl)-4-methoxy-1H-benzo[d]imidazole-5-carboxamide)] |
| – | > 100 | > 100 | COc1c(C(N)=O)ccc2c1nc(-c1ccc(C(F)(F)F)cc1C(=O)O)n2CCn1c(-c2ccc(C(F)(F)F)cc2C(=O)O)nc2c(OC)c(C(N)=O)ccc21 [Example 38, 6,6′-(Ethane-1,2-diylbis(5-carbamoyl-4-methoxy-1H-benzo[d]imidazole-1,2-diyl))bis(3-(trifluoromethyl)benzoic acid)] |
| – | 200 | – | COc1ccc(-c2nc3c(OC)c(C(N)=O)ccc3n2CCn2c(-c3ccc(OC)cc3C(=O)O)nc3c(OC)c(C(N)=O)ccc32)c(C(=O)O)c1 [Example 41, 6,6′-(Ethane-1,2-diylbis(5-carbamoyl-4-methoxy-1H-benzo[d]imidazole-1,2-diyl))bis(3-methoxybenzoic acid)] |
| – | 139 | – | COc1c(C(N)=O)ccc2c1nc(-c1cc(Cl)ccc1-c1nn[nH]n1)n2CCn1c(-c2cc(Cl)ccc2-c2nn[nH]n2)nc2c(OC)c(C(N)=O)ccc21 [Example 42, 1,1′-(Ethane-1,2-diyl)bis(2-(5-chloro-2-(2H-tetrazol-5-yl)phenyl)-4-methoxy-1H-benzo[d]imidazole-5-carboxamide)] |
| – | 1.79 | – | COc1c(C(N)=O)ccc2c1nc(-c1c(F)cc(F)cc1-c1nn[nH]n1)n2CCn1c(-c2c(F)cc(F)cc2-c2nn[nH]n2)nc2c(OC)c(C(N)=O)ccc21 [Example 43, 1,1′-(Ethane-1,2-diyl)bis(2-(2,4-difluoro-6-(2H-tetrazol-5-yl)phenyl)-4-methoxy-1H-benzo[d]imidazole-5-carboxamide)] |
| – | 11.1 | – | COc1c(C(N)=O)ccc2c1nc(-c1c(F)cc(F)cc1-c1n[nH]c(=O)o1)n2CCn1c(-c2c(F)cc(F)cc2-c2n[nH]c(=O)o2)nc2c(OC)c(C(N)=O)ccc21 [Example 44, 1,1′-(Ethane-1,2-diyl)bis(2-(2,4-difluoro-6-(5-oxo-4,5-dihydro-1,3,4-oxadiazol-2-yl)phenyl)-4-methoxy-1H-benzo[d]imidazole-5-carboxamide)] |
| – | 0.359 | – | COc1c(C(N)=O)ccc2c1nc(-c1c(F)cc(Cl)cc1-c1n[nH]c(=O)o1)n2CCn1c(-c2c(F)cc(Cl)cc2-c2n[nH]c(=O)o2)nc2c(OC)c(C(N)=O)ccc21 [Example 50, 1,1′-(Ethane-1,2-diyl)bis(2-(4-chloro-2-fluoro-6-(5-oxo-4,5-dihydro-1,3,4-oxadiazol-2-yl)phenyl)-4-methoxy-1H-benzo[d]imidazole-5-carboxamide)] |
